Measurements taken from patent US20160039825A1 (BIOGEN MA INC., priority 2013, published 2016).

biological target: T1, Human ATX protein (Homo sapiens, UniProt Q13822); experiment: Autotaxin (ATX) assay, FRET with FS-3 substrate; type: biochemical; details: upper bound bins (no greater than 100, 250 or 500 nM); FS-3 2 μM, ATX 1.0 μg/mL
T1 construct: made in house
Summary of the method: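 Hydrolysis of the FRET substrate FS-3 (2 μM final) unquenches fluorescein, read at excitation 485 nm and emission 538 nm after 2 h at room temperature, protected from light. Purified human ATX (1.0 μg/mL) and compound were first incubated for 30 min in pH 7.4 Tris/salt buffer containing 1 mg/mL fatty acid-free BSA.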

Q: For `O=C(OCc1cc(C(F)(F)F)cc(C(F)(F)F)c1)N1CCCn2nc(N3CCN(CCO)CC3)cc2C1` [Example 358], which IC50 is on record?
A: ≤ 100 nM

Q: `CCC1(CC)CN(C)CCN1C(=O)c1cc2n(n1)CCCN(C(=O)OCc1cc(Cl)cc(C(F)(F)F)c1)C2` [Example 229] was tested. Which IC50 did it give?
A: ≤ 100 nM

Q: For `O=C(OCc1cc(Cl)cc(Cl)c1)N1CCCn2nc(C(=O)N3CCOCC3)cc2C1` [Example 23, 3,5-Dichlorobenzyl 2-(morpholine-4-carbonyl)-7,8-dihydro-4H-pyrazolo[1,5-a][1,4]diazepine-5(6H)-carboxylate], which IC50 is on record?
A: ≤ 100 nM

Q: For `O=C(OCc1cc(C(F)(F)F)cc(C(F)(F)F)c1)N1CCCn2nc(C3CCCNC3)cc2C1` (stereo not drawn) [Example 380], which IC50 is on record?
A: ≤ 100 nM

Q: Which IC50 does the source give for `O=C(O)C1CCCN(C(=O)c2cc3n(n2)CCCN(C(=O)OCc2cc(Cl)cc(Cl)c2)C3)C1` (stereo not drawn) [Example 88, 1-(5-(((3,5-dichlorobenzyl)oxy)carbonyl)-5,6,7,8-tetrahydro-4H-pyrazolo[1,5-a][1,4]diazepine-2-carbonyl)piperidine-3-carboxylic acid] here?
A: ≤ 250 nM

Q: With `O=C(OCc1cc(Cl)cc(C(F)(F)F)c1)N1CCn2nc(C(=O)N3CC4CNCC4C3)cc2C1` (stereo not drawn) [Example 442] as the molecule, how does the IC50 read?
A: ≤ 100 nM

Q: For `COC(=O)C1CC2CCCC(C1)N2C(=O)c1cc2n(n1)CCCN(C(=O)OCc1cc(Cl)cc(Cl)c1)C2` (stereo not drawn) [Example 95, 3,5-Dichlorobenzyl 2-(3-(methoxycarbonyl)-9-azabicyclo[3.3.1]nonane-9-carbonyl)-7,8-dihydro-4H-pyrazolo[1,5-a][1,4]diazepine-5(6H)-carboxylate], which IC50 is on record?
A: ≤ 100 nM

Q: For `CN1CCN(C(=O)c2cc3n(n2)CCCN(C(=O)OCc2cc(Cl)cc(C(F)(F)F)c2)C3)C2(CCCC2)C1` [Example 232], which IC50 is on record?
A: ≤ 100 nM

Q: `O=C(OCc1cc(C(F)(F)F)cc(C(F)(F)F)c1)N1CCCn2nc(C3CC4CCC(C3)N4)cc2C1` (stereo not drawn) [Example 377] was tested. Which IC50 did it give?
A: ≤ 100 nM

Q: `O=C(OCc1cc(C(F)(F)F)cc(C(F)(F)F)c1)N1CCCn2nc(C(=O)N3CCN(CCO)CC3)cc2C1` [Example 298, 3,5-bis(trifluoromethyl)benzyl 2-(4-(2-hydroxyethyl)piperazine-1-carbonyl)-7,8-dihydro-4H-pyrazolo[1,5-a][1,4]diazepine-5(6H)-carboxylate] was tested. Which IC50 did it give?
A: ≤ 100 nM

Q: Which IC50 does the source give for `O=C(CN1CC(C(=O)O)C1)c1cc2n(n1)CCCN(C(=O)OCc1cc(Cl)cc(C(F)(F)F)c1)C2` [Example 272] here?
A: ≤ 100 nM

Q: For `CC1CN(C(=O)OCc2cc(C(F)(F)F)cc(C(F)(F)F)c2)Cc2cc(C(=O)O)nn2C1` (stereo not drawn) [Example 111, 5-(((3,5-Bis(trifluoromethyl)benzyl)oxy)carbonyl)-7-methyl-5,6,7,8-tetrahydro-4H-pyrazolo[1,5-a][1,4]diazepine-2-carboxylic acid], which IC50 is on record?
A: ≤ 100 nM

Q: For `O=C(OCc1cc(Cl)cc(C(F)(F)F)c1)N1CCCn2nc(C(O)C(F)(F)F)cc2C1` (stereo not drawn) [Example 286, 3-chloro-5-(trifluoromethyl)benzyl 2-(2,2,2-trifluoro-1-hydroxyethyl)-7,8-dihydro-4H-pyrazolo[1,5-a][1,4]diazepine-5(6H)-carboxylate], which IC50 is on record?
A: ≤ 100 nM

Q: Which IC50 does the source give for `CC1CN(C(=O)c2cc3n(n2)CCN(C(=O)OCc2cc(C(F)(F)F)cc(C(F)(F)F)c2)C3)CCN1` (stereo not drawn) [Example 439] here?
A: ≤ 100 nM

Q: With `CN1C2CCC1CN(C(=O)c1cc3n(n1)CCCN(C(=O)OCc1cc(Cl)cc(C(F)(F)F)c1)C3)C2` [Example 201] as the molecule, how does the IC50 read?
A: ≤ 100 nM

Q: How did the IC50 turn out when `O=C(CCl)c1cc2n(n1)CCCN(C(=O)OCc1cc(Cl)cc(C(F)(F)F)c1)C2` [Example 250, 3-Chloro-5-(trifluoromethyl)benzyl 2-(2-chloroacetyl)-7,8-dihydro-4H-pyrazolo[1,5-a][1,4]diazepine-5(6H)-carboxylate] was run?
A: ≤ 100 nM

Q: With `O=C(OCc1cc(Cl)cc(Cl)c1)N1CCCn2cncc2C1` [Example 133, 3,5-Dichlorobenzyl 6,7-dihydro-5H-imidazo[1,5-a][1,4]diazepine-8(9H)-carboxylate] as the molecule, how does the IC50 read?
A: ≤ 100 nM

Q: Which IC50 does the source give for `O=C(OCc1cc(Cl)cc(C(F)(F)F)c1)N1CCCn2nc(C(=O)N3CC4CNC(C4)C3)cc2C1` (stereo not drawn) [Example 188] here?
A: ≤ 100 nM

Q: With `CC(c1cc2n(n1)CCN(C(=O)OCc1cc(C(F)(F)F)cc(C(F)(F)F)c1)C2)N1CC2CCC(C1)N2` (stereo not drawn) [Example 427] as the molecule, how does the IC50 read?
A: ≤ 100 nM

Q: `O=C(O)C1CC2CCCC(C1)N2C(=O)c1cc2n(n1)CCN(C(=O)OCc1cc(Cl)cc(Cl)c1)C2` (stereo not drawn) [Example 41, 9-(5-(((3,5-Dichlorobenzyl)oxy)carbonyl)-4,5,6,7-tetrahydropyrazolo[1,5-a]pyrazine-2-carbonyl)-9-azabicyclo[3.3.1]nonane-3-carboxylic acid] was tested. Which IC50 did it give?
A: ≤ 100 nM

Q: For `NC(=O)c1cc2n(n1)CCN(C(=O)OCc1cc(C(F)(F)F)cc(C(F)(F)F)c1)C2` [Example 491], which IC50 is on record?
A: ≤ 100 nM

Q: For `CCCNC(=O)c1cc2n(n1)CCN(C(=O)OCc1cc(C(F)(F)F)cc(C(F)(F)F)c1)C2` [Example 481], which IC50 is on record?
A: ≤ 100 nM

Q: With `O=C(OCc1cc(Cl)cc(Cl)c1)N1CCCn2nc(C(=O)N3CCCCC3)cc2C1` [Example 19, 3,5-Dichlorobenzyl 2-(piperidine-1-carbonyl)-7,8-dihydro-4H-pyrazolo[1,5-a][1,4]diazepine-5(6H)-carboxylate] as the molecule, how does the IC50 read?
A: ≤ 100 nM

Q: `CCOC(=O)c1cc2n(n1)CCCN(C(=O)OCc1cc(C(F)(F)F)cc(C(F)(F)F)c1)C2` [Example 2, 5-(3,5-Bis(trifluoromethyl)benzyl) 2-ethyl 7,8-dihydro-4H-pyrazolo[1,5-a][1,4]diazepine-2,5(6H)-dicarboxylate] was tested. Which IC50 did it give?
A: ≤ 100 nM

Q: For `CC1CN(C(=O)c2cc3n(n2)CCCN(C(=O)OCc2cc(Cl)cc(C(F)(F)F)c2)C3)CCN1` (stereo not drawn) [Example 208], which IC50 is on record?
A: ≤ 100 nM

Q: For `C[C@@H]1CNC[C@@H](C)N1C(=O)c1cc2n(n1)CCCN(C(=O)OCc1cc(Cl)cc(C(F)(F)F)c1)C2` [Example 161], which IC50 is on record?
A: ≤ 100 nM

Q: `CS(=O)(=O)NC(=O)c1cc2n(n1)CCCN(C(=O)OCc1cc(C(F)(F)F)cc(C(F)(F)F)c1)C2` [Example 299, 3,5-bis(trifluoromethyl)benzyl 2-((methylsulfonyl)carbamoyl)-7,8-dihydro-4H-pyrazolo[1,5-a][1,4]diazepine-5(6H)-carboxylate] was tested. Which IC50 did it give?
A: ≤ 100 nM

Q: With `CN1CCN(C(=O)c2cc3n(n2)CCCN(C(=O)OCc2cc(Cl)cc(C(F)(F)F)c2)C3)C(C)(C)C1` [Example 176, 3-chloro-5-(trifluoromethyl)benzyl 2-(2,2,4-trimethylpiperazine-1-carbonyl)-7,8-dihydro-4H-pyrazolo[1,5-a][1,4]diazepine-5(6H)-carboxylate] as the molecule, how does the IC50 read?
A: ≤ 100 nM

Q: With `O=C(O)C1CCN(C(=O)c2cc3n(n2)CCCN(C(=O)OCc2cc(Cl)cc(Cl)c2)C3)CC1` [Example 87, 1-(5-(((3,5-Dichlorobenzyl)oxy)carbonyl)-5,6,7,8-tetrahydro-4H-pyrazolo[1,5-a][1,4]diazepine-2-carbonyl)piperidine-4-carboxylic acid] as the molecule, how does the IC50 read?
A: ≤ 100 nM

Q: How did the IC50 turn out when `O=C(OCc1cc(C(F)(F)F)cc(C(F)(F)F)c1)N1CCn2nc(C(=O)N3CCCCC3)cc2C1` [Example 493] was run?
A: ≤ 100 nM

Q: `CN1CCN(C(=O)c2cc3n(n2)CCCN(C(=O)OCc2cc(Cl)cc(C(F)(F)F)c2)C3)C(C#N)C1` (stereo not drawn) [Example 183] was tested. Which IC50 did it give?
A: ≤ 100 nM

Q: `CN1C2CCCC1CN(C(=O)c1cc3n(n1)CCCN(C(=O)OCc1cc(C(F)(F)F)cc(C(F)(F)F)c1)C3)C2` [Example 230] was tested. Which IC50 did it give?
A: ≤ 100 nM

Q: How did the IC50 turn out when `CC(c1cc2n(n1)CCN(C(=O)OCc1cc(C(F)(F)F)cc(C(F)(F)F)c1)C2)N1C2CCC1CNC2` (stereo not drawn) [Example 428] was run?
A: ≤ 100 nM

Q: With `O=C(OCc1cc(Cl)cc(C(F)(F)F)c1)N1CCn2nc(C(=O)N3CCC(O)CC3)cc2C1` [Example 479] as the molecule, how does the IC50 read?
A: ≤ 100 nM

Q: How did the IC50 turn out when `CC(c1cc2n(n1)CCN(C(=O)OCc1cc(C(F)(F)F)cc(C(F)(F)F)c1)C2)N1CCC(O)CC1` (stereo not drawn) [Example 457] was run?
A: ≤ 250 nM

Q: Which IC50 does the source give for `O=C(O)C1CC2CCCC(C1)N2C(=O)c1cc2n(n1)CCCN(C(=O)OCc1cccc(C(F)(F)F)c1)C2` (stereo not drawn) [Example 58, 9-(5-((3-(Trifluoromethyl)benzyloxy)carbonyl)-5,6,7,8-tetrahydro-4H-pyrazolo[1,5-a][1,4]diazepine-2-carbonyl)-9-aza-bicyclo[3.3.1]nonane-3-carboxylic acid] here?
A: ≤ 100 nM

Q: With `CN1CCN(C(=O)c2cc3n(n2)CCCN(C(=O)OCc2cc(C(F)(F)F)cc(C(F)(F)F)c2)C3)C(C)(C)C1` [Example 218] as the molecule, how does the IC50 read?
A: ≤ 100 nM

Q: Which IC50 does the source give for `CC(C)N1CCN(c2cc3n(n2)CCCN(C(=O)OCc2cc(C(F)(F)F)cc(C(F)(F)F)c2)C3)CC1` [Example 356] here?
A: ≤ 100 nM

Q: `O=C(NC1COC1)c1cc2n(n1)CCCN(C(=O)OCc1cc(C(F)(F)F)cc(C(F)(F)F)c1)C2` [Example 505] was tested. Which IC50 did it give?
A: ≤ 100 nM

Q: For `O=C(O)C1CC2CCCC(C1)N2C(=O)c1cc2n(n1)CCCN(C(=O)OCc1cc(C(F)(F)F)cc(C(F)(F)F)c1)C2` (stereo not drawn) [Example 63, 9-(5-((3,5-Bis(trifluoromethyl)benzyloxy)carbonyl)-5,6,7,8-tetrahydro-4H-pyrazolo[1,5-a][1,4]diazepine-2-carbonyl)-9-aza-bicyclo[3.3.1]nonane-3-carboxylic acid], which IC50 is on record?
A: ≤ 100 nM

Q: With `O=C(OCc1cc(Cl)cc(C(F)(F)F)c1)N1CCCn2nc(C(=O)N3C4CCC3CNC4)cc2C1` [Example 203] as the molecule, how does the IC50 read?
A: ≤ 100 nM

Q: Which IC50 does the source give for `C[C@H]1CNC[C@H](C)N1C(=O)c1cc2n(n1)CCCN(C(=O)OCc1cc(C(F)(F)F)cc(C(F)(F)F)c1)C2` [Example 247] here?
A: ≤ 100 nM

Q: How did the IC50 turn out when `O=C(OCc1cc(Cl)cc(Cl)c1)N1CCCn2nc(C(=O)N3CCC(O)CC3)cc2C1` [Example 101, 3,5-Dichlorobenzyl 2-(4-hydroxypiperidine-1-carbonyl)-7,8-dihydro-4H-pyrazolo[1,5-a][1,4]diazepine-5(6H)-carboxylate] was run?
A: ≤ 100 nM

Q: `CNCc1cc2n(n1)CCCN(C(=O)OCc1cc(C(F)(F)F)cc(C(F)(F)F)c1)C2` [Example 294] was tested. Which IC50 did it give?
A: ≤ 500 nM

Q: Which IC50 does the source give for `O=C(O)c1cnc2n1CCN(C(=O)OCc1cc(C(F)(F)F)cc(C(F)(F)F)c1)CC2` [Example 10, 7-(((3,5-Bis(trifluoromethyl)benzyl)oxy)carbonyl)-6,7,8,9-tetrahydro-5H-imidazo[1,2-d][1,4]diazepine-3-carboxylic acid] here?
A: ≤ 500 nM
